Experimental data published in US8198320B2, “Hypoglycemic activity of osthole” (Taipei Medical University, priority 2008, dated 2012).

Tests used:
db/db diabetic mice [1] = assay: Effect of intraperitoneal administration of osthole on blood glucose level of db/db diabetic mice; assay type: in vivo; conditions: male db/db mice, 50 mg/kg intraperitoneal once daily, five days a week for two weeks, fasted about 16 hours; before treatment about 360 mg/dL; DMSO control 550 mg/dL
Description: Six male db/db diabetic mice (6 to 11 week-old, purchased from National Laboratory Animal Center (Taipei, Taiwan)) were fasted for over 8 hours and venous blood was collected for the measurement of blood glucose level. The mice were divided into two groups (control group and experimental group) on the basis of their blood glucose level and body weight. The mice in the control group were given the solvent DMSO by means of intraperitoneal administration. The mice in the experimental group were given osthole (50 mg/kg body weight) (purchased from Hangzhou Gosun Biotechnologies Co., Zhejiang, China) by means of intraperitoneal administration. The solvent and osthole were administered once daily, five days a week for two weeks. The mice were then fasted for about 16 hours before being sacrificed and blood samples were collected for the measurement of blood glucose levels. […] After two weeks of treatment, the blood glucose level of the mice in the control group was elevated to 550 mg/dL, whereas the blood glucose level of the mice in the experimental group was maintained at about 360 mg/dL.

db/db diabetic mice [2] = assay: Effect of oral administration of osthole on blood glucose level of db/db diabetic mice; assay type: in vivo; conditions: male db/db mice, 50 mg/kg by gastric tube once daily, five days a week for three weeks, fasted about 16 hours; before treatment about 200 mg/dL; PBS control 400 mg/dL
Description: Six male db/db diabetic mice (5 to 7 week-old, purchased from National Laboratory Animal Center (Taipei, Taiwan)) were fasted for over 8 hours and venous blood was collected for the measurement of blood glucose level. The mice were divided into two groups (control group and experimental group) on the basis of their blood glucose level and body weight. The mice in the control group were fed with PBS by gastric tube. The mice in the experimental group were fed with osthole (50 mg/kg body weight) by gastric tube. The PBS and osthole were administered once daily, five days a week for three weeks. The mice were then fasted for about 16 hours before being sacrificed and blood samples were collected for the measurement of blood glucose level. […] After three weeks of treatment, the blood glucose level of the mice in the control group was elevated to 400 mg/dL; whereas, the blood glucose level of the mice in the experimental group was maintained at about 210 mg/dL.

COc1ccc2ccc(=O)oc2c1CC=C(C)C [osthole, 7-methoxy-8-(3-methyl-2-butenyl)-2H-1-benzopyran-2-one]
blood glucose level after two weeks of treatment (db/db diabetic mice [1]): about 360 mg/dL | blood glucose level after three weeks of treatment (db/db diabetic mice [2]): about 210 mg/dL
